Reference: patent US11414431B2, “Substituted pyrazolo[1,5-a]pyrimidines as TYK2 inhibitors” (Nimbus Lakshmi, Inc., priority 2018, dated 2022)

tested on: IL-12 induced STAT4 phosphorlyation mediated by TYK2/JAK2; assay: IL-12 Induced pSTAT4 in Human PBMC; assay type: cell-based; details: 1.7 ng/mL IL-12 for 30 minutes
Procedure: Human PBMC were isolated from buffy coat and are stored frozen for assays as needed. […] 15 μL of compound or DMSO was added to the well at the desired concentrations and incubated at 1 hr at 37° C. 15 μL of stimulus (final concentration of 1.7 ng/mL IL-12) was added for 30 minutes prior to pSTAT4 and total STAT4 analysis using cell lysates prepared and analyzed by MSD reagents as per manufacturer protocol. The final DMSO concentration of compound in the assay was 0.1%.
The IL-12 induced pSTAT4 assay evaluates the inhibition of IL-12 induced STAT4 phosphorlyation mediated by TYK2/JAK2 (heterpdimeric complex).

IC50	SMILES
< 0.1 µM	CNc1cc(Nc2cccn(C(C)C)c2=O)nc2c(C(=O)NC3CC[C@@H]3F)cnn12 (mixture of isomers) [Compound I-145]
< 0.1 µM	CNc1cc(Nc2cccn([C@H]3C[C@@H](OC)C3)c2=O)nc2c(C(=O)NC3CC[C@@H]3F)cnn12 (mixture of isomers) [Compound I-173]
< 0.1 µM	CNc1cc(Nc2cccn([C@H]3C[C@H](OC)C3)c2=O)nc2c(C(=O)NC3CC[C@@H]3F)cnn12 (mixture of isomers) [Compound I-176]
< 0.1 µM	CNc1cc(Nc2cccn([C@H]3C[C@H](F)C3)c2=O)nc2c(C(=O)N[C@H]3CC[C@H]3O)cnn12 [Compound I-16, 5-((1-((1r,3S)-3-Fluorocyclobutyl)-2-oxo-1,2-dihydropyridin-3-yl)amino)-N-((1S,2R)-2-hydroxycyclobutyl)-7-(methylamino)pyrazolo[1,5-a]pyrimidine-3-carboxamide]
< 0.1 µM	CNc1cc(Nc2cccn([C@H]3[C@@H]4COC[C@@H]43)c2=O)nc2c(C(=O)N[C@@H]3C[C@H]3OC)cnn12 [Compound I-25, 5-((1-((1R,5S,6r)-3-Oxabicyclo[3.1.0]hexan-6-yl)-2-oxo-1,2-dihydropyridin-3-yl)amino)-N-((1R,2R)-2-methoxycyclopropyl)-7-(methylamino)pyrazolo[1,5-a]pyrimidine-3-carboxamide]
< 0.1 µM	CNc1cc(Nc2cccn([C@H]3C[C@H](F)C3)c2=O)nc2c(C(=O)N[C@@H]3CC[C@H]3OC)cnn12 [Compound I-57, 5-((1-((1r,3R)-3-Fluorocyclobutyl)-2-oxo-1,2-dihydropyridin-3-yl)amino)-N-((1R,2R)-2-methoxycyclobutyl)-7-(methylamino)pyrazolo[1,5-a]pyrimidine-3-carboxamide]
0.1 to 0.5 µM	CNc1cc(Nc2cccn([C@H]3C[C@H](F)C3)c2=O)nc2c(C(=O)N[C@@H]3CC[C@H]3O)cnn12 [Compound I-108, 5-((1-((1r,3R)-3-Fluorocyclobutyl)-2-oxo-1,2-dihydropyridin-3-yl)amino)-N-((1R,2R)-2-hydroxycyclobutyl)-7-(methylamino)pyrazolo[1,5-a]pyrimidine-3-carboxamide]
< 0.1 µM	CNc1cc(Nc2cccn([C@@H]3CCC[C@](C)(OC)C3)c2=O)nc2c(C(=O)NC3CC3)cnn12 [Compound I-124]
< 0.1 µM	CNc1cc(Nc2cccn(C3COC3)c2=O)nc2c(C(=O)N[C@@H]3C[C@@H]3F)cnn12 [Compound I-125]
< 0.1 µM	CNc1cc(Nc2cccn([C@H]3CCC[C@@](C)(O)C3)c2=O)nc2c(C(=O)N[C@@H]3C[C@@H]3F)cnn12 [Compound I-129]
< 0.1 µM	CNc1cc(Nc2cccn(C3CCC[C@@](C)(OC)C3)c2=O)nc2c(C(=O)N[C@@H]3C[C@@H]3F)cnn12 (stereo partly drawn) [Compound I-130]
< 0.1 µM	CNc1cc(Nc2cccn([C@@H]3CCC[C@](C)(OC)C3)c2=O)nc2c(C(=O)N[C@@H]3C[C@@H]3F)cnn12 [Compound I-131]
< 0.1 µM	CNc1cc(Nc2cccn([C@H]3C[C@@H]3F)c2=O)nc2c(C(=O)N[C@@H]3C[C@H]3OC)cnn12 [Compound I-133]
< 0.1 µM	CNc1cc(Nc2cccn([C@@H]3C[C@H]3F)c2=O)nc2c(C(=O)N[C@@H]3C[C@H]3OC)cnn12 [Compound I-135]
< 0.1 µM	CNc1cc(Nc2cccn(C3CC(F)(F)C3)c2=O)nc2c(C(=O)N[C@@H]3C[C@H]3OC)cnn12 [Compound I-139]
< 0.1 µM	CNc1cc(Nc2cccn(C(C)C)c2=O)nc2c(C(=O)N[C@@H]3CC[C@H]3F)cnn12 [Compound I-147]
< 0.1 µM	CNc1cc(Nc2cccn([C@H]3C[C@@H]3F)c2=O)nc2c(C(=O)N[C@H]3CC[C@@H]3F)cnn12 [Compound I-149]
< 0.1 µM	CNc1cc(Nc2cccn([C@@H]3C[C@H]3F)c2=O)nc2c(C(=O)NC3CC[C@@H]3F)cnn12 (stereo partly drawn) [Compound I-151]
< 0.1 µM	CNc1cc(Nc2cccn([C@@H]3C[C@H]3OC)c2=O)nc2c(C(=O)N[C@H]3CC[C@@H]3F)cnn12 [Compound I-155]
< 0.1 µM	CNc1cc(Nc2cccn([C@H]3C[C@@H]3OC)c2=O)nc2c(C(=O)N[C@H]3CC[C@@H]3F)cnn12 [Compound I-158]
< 0.1 µM	CNc1cc(Nc2cccn([C@H]3C[C@H](F)C3)c2=O)nc2c(C(=O)NC3CC[C@@H]3F)cnn12 (stereo partly drawn) [Compound I-164]
< 0.1 µM	CNc1cc(Nc2cccn([C@H]3C[C@H](F)C3)c2=O)nc2c(C(=O)N[C@H]3CC[C@@H]3F)cnn12 [Compound I-165]
< 0.1 µM	CNc1cc(Nc2cccn([C@H]3CC[C@H]3O)c2=O)nc2c(C(=O)NC3CC[C@@H]3F)cnn12 (stereo partly drawn) [Compound I-167]

same assay, conditions: 0.5 h, 1.7 ng/mL IL-12 for 30 minutes

IC50	SMILES
< 0.1 µM	CO[C@@H]1CCC1NC(=O)c1cnn2c3c(c(Nc4cccn(C(C)C)c4=O)nc12)OCCN3 (stereo in doubt) [Compound I-759, 5-((1-Isopropyl-2-oxo-1,2-dihydropyridin-3-yl)amino)-N-(2-methoxycyclobutyl)-2,3-dihydro-1H-pyrazolo[5′,1′:2,3]pyrimido[5,4-b][1,4]oxazine-7-carboxamide]
0.1 to 0.5 µM	CNc1cc(-c2cn(CC(=O)N(C)C)c3ncccc23)nc2c(C(=O)NC3CC[C@@H]3OC)cnn12 (stereo in doubt) [Compound I-920, 5-(1-(2-(dimethylamino)-2-oxoethyl)-1H-pyrrolo[2,3-b]pyridin-3-yl)-N-(2-methoxycyclobutyl)-7-(methylamino)pyrazolo[1,5-a]pyrimidine-3-carboxamide]
0.1 to 0.5 µM	CNc1cc(-c2cn(CC(=O)N3CCC3)c3ncccc23)nc2c(C(=O)NC3CC[C@@H]3OC)cnn12 (stereo in doubt) [Compound I-928, 5-(1-(2-(azetidin-1-yl)-2-oxoethyl)-1H-pyrrolo[2,3-b]pyridin-3-yl)-N-(2-methoxycyclobutyl)-7-(methylamino)pyrazolo[1,5-a]pyrimidine-3-carboxamide]
0.1 to 0.5 µM	CNc1cc(-c2cnc3n(CC(C)(C)O)cccc2-3)nc2c(C(=O)NC3CC[C@@H]3OC)cnn12 (stereo in doubt) [Compound I-979, 5-(7-(2-hydroxy-2-methylpropyl)-7H-pyrrolo[2,3-b]pyridin-3-yl)-N-(2-methoxycyclobutyl)-7-(methylamino)pyrazolo[1,5-a]pyrimidine-3-carboxamide]
0.1 to 0.5 µM	CNc1cc(-c2cnc3n(CCCN4CCOCC4)cccc2-3)nc2c(C(=O)NC3CC[C@@H]3OC)cnn12 (stereo in doubt) [Compound I-981, N-(2-methoxycyclobutyl)-7-(methylamino)-5-(7-(3-morpholinopropyl)-7H-pyrrolo[2,3-b]pyridin-3-yl)pyrazolo[1,5-a]pyrimidine-3-carboxamide]
0.1 to 0.5 µM	CNc1cc(Nc2cccn([C@H]3C[C@H](F)C3)c2=O)nc2c(C(=O)NC3CC[C@H]3O)cnn12 (stereo partly drawn) [Compound I-11, 5-((1-((1r,3S)-3-Fluorocyclobutyl)-2-oxo-1,2-dihydropyridin-3-yl)amino)-N-(2-hydroxycyclobutyl)-7-(methylamino)pyrazolo[1,5-a]pyrimidine-3-carboxamide]
< 0.1 µM	CNc1cc(Nc2cccn([C@H]3C[C@@H]3F)c2=O)nc2c(C(=O)N[C@H]3CC[C@H]3O)cnn12 [Compound I-12, 5-((1-((1S,2S)-2-Fluorocyclopropyl)-2-oxo-1,2-dihydropyridin-3-yl)amino)-N-((1S,2R)-2-hydroxycyclobutyl)-7-(methylamino)pyrazolo[1,5-a]pyrimidine-3-carboxamide]
< 0.1 µM	CNc1cc(Nc2cccn([C@@H]3CC[C@H]3OC)c2=O)nc2c(C(=O)N[C@H]3CC[C@@H]3O)cnn12 [Compound I-20, N-((1S,2S)-2-Hydroxycyclobutyl)-5-((1-((1R,2R)-2-methoxycyclobutyl)-2-oxo-1,2-dihydropyridin-3-yl)amino)-7-(methylamino)pyrazolo[1,5-a]pyrimidine-3-carboxamide]
< 0.1 µM	CNc1cc(Nc2cccn(-c3ccc(C)nc3)c2=O)nc2c(C(=O)N[C@@H]3C[C@H]3OC)cnn12 [Compound I-34, N-((1R,2R)-2-Methoxycyclopropyl)-5-((6′-methyl-2-oxo-2H-[1,3′-bipyridin]-3-yl)amino)-7-(methylamino)pyrazolo[1,5-a]pyrimidine-3-carboxamide]
< 0.1 µM	[2H]C([2H])([2H])O[C@H]1CCC1NC(=O)c1cnn2c(NC)cc(Nc3cccn([C@H]4[C@@H]5COC[C@@H]54)c3=O)nc12 (stereo partly drawn) [Compound I-102, 5-((1-((1R,5S,6r)-3-Oxabicyclo[3.1.0]hexan-6-yl)-2-oxo-1,2-dihydropyridin-3-yl)amino)-N-((trans-1,2)-2-(methoxy-d3)cyclobutyl)-7-(methylamino)pyrazolo[1,5-a]pyrimidine-3-carboxamide]
< 0.1 µM	CNc1cc(Nc2cccn([C@H]3CCC[C@@H](C#N)C3)c2=O)nc2c(C(=O)NC3CC[C@@H]3OC)cnn12 (stereo partly drawn) [Compound I-114, 5-((1-((1S,3R)-3-Cyanocyclohexyl)-2-oxo-1,2-dihydropyridin-3-yl)amino)-N-((trans-1,2)-2-methoxycyclobutyl)-7-(methylamino)pyrazolo[1,5-a]pyrimidine-3-carboxamide]
< 0.1 µM	CNc1cc(Nc2cccn([C@@H]3CCC[C@H](C#N)C3)c2=O)nc2c(C(=O)NC3CC[C@@H]3OC)cnn12 (stereo partly drawn) [Compound I-115, 5-((1-((1R,3S)-3-Cyanocyclohexyl)-2-oxo-1,2-dihydropyridin-3-yl)amino)-N-((trans-1,2)-2-methoxycyclobutyl)-7-(methylamino)pyrazolo[1,5-a]pyrimidine-3-carboxamide]
< 0.1 µM	CNc1cc(Nc2cccn([C@H]3C[C@@H]3F)c2=O)nc2c(C(=O)NC3CC[C@@H]3F)cnn12 (stereo partly drawn) [Compound I-148, N-((trans-1,2)-2-Fluorocyclobutyl)-5-((1-((1S,2S)-2-fluorocyclopropyl)-2-oxo-1,2-dihydropyridin-3-yl)amino)-7-(methylamino)pyrazolo[1,5-a]pyrimidine-3-carboxamide]
